pKi: −log10 of the molar value.
Legend:
[1] = In vitro assays of genotoxic potential
[2] = biological target: T1, human GR (glucocorticoid receptor) (Homo sapiens, UniProt P04150); assay: Nuclear hormone receptor binding assay, GR; conditions: HEK293 cell lysate expressing human GR, [3H]-dexamethasone; mean of 5 determinations
T1 construct: expressed in transfected cells; host or cells: HEK293 (lysate, '293-GR lysate')
T1 sequence (P04150 1-777): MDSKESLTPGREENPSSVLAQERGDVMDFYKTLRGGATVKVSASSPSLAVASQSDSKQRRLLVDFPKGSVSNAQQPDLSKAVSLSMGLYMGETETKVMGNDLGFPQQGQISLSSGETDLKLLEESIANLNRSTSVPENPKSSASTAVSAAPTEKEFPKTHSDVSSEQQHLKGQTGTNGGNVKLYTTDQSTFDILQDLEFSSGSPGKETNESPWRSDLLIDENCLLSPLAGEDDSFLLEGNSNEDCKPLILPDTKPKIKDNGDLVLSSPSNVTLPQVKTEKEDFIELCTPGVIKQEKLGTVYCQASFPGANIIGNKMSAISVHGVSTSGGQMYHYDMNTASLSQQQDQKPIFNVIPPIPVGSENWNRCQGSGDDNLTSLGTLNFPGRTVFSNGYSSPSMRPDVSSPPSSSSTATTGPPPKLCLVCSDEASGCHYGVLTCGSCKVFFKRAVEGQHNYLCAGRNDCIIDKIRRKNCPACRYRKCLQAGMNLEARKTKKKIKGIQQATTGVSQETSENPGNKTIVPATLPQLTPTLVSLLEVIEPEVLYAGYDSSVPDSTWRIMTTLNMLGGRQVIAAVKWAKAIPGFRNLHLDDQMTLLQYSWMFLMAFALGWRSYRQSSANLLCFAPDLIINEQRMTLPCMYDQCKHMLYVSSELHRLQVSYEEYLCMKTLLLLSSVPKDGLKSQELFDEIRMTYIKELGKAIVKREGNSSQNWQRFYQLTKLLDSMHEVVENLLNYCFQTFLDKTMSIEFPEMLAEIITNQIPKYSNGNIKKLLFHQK
Protocol: (§1) Cell lysates from human embryonic kidney HEK293 cells overexpressing human GR (glucocorticoid receptor), AR (androgen receptor), MR (mineralocorticoid receptor), or PR (progesterone receptor) are used for receptor-ligand competition binding assays to determine Ki values.
(§2) Briefly, steroid receptor competition binding assays are run in a buffer containing 20 mM Hepes buffer (pH=7.6), 0.2 mM EDTA, 75 mM NaCl, 1.5 mM MgCl2, 20% glycerol, 20 mM sodium molybdate, 0.2 mM DTT (dithiothreitol), 20 μg/mL aprotinin and 20 μg/mL leupeptin. Typically, steroid receptor binding assays include radio-labeled ligands, such as 0.3 nM [^3H]-dexamethasone for GR binding, 0.36 nM [^3H]-methyltrienolone for AR binding, 0.25 nM [^3H]-aldosterone for MR binding, and 0.29 nM [^3H]-methyltrienolone for PR binding, and either 20 μg 293-GR lysate, 22 μg 293-AR lysate, 20 μg 293-MR lysate or 40 μg 293-PR lysate per well. Assays are typically run in 96-well format. Competing test compounds are added at various concentrations ranging from about 0.01 nM to 10 μM. Non-specific binding is determined in the presence of 500 nM dexamethasone for GR binding, 500 nM aldosterone for MR binding, or 500 nM methyltrienolone for AR and PR binding. […] After an incubation of 2 hours, plates are read in a Wallac Microbeta counter. […]

[3] = biological target: T2, human MR (mineralocorticoid receptor) (Homo sapiens, UniProt P08235); assay: Nuclear hormone receptor binding assay, MR
T2 construct: expressed in transfected cells; host or cells: HEK293 (lysate, '293-MR lysate')
T2 sequence (P08235 1-984): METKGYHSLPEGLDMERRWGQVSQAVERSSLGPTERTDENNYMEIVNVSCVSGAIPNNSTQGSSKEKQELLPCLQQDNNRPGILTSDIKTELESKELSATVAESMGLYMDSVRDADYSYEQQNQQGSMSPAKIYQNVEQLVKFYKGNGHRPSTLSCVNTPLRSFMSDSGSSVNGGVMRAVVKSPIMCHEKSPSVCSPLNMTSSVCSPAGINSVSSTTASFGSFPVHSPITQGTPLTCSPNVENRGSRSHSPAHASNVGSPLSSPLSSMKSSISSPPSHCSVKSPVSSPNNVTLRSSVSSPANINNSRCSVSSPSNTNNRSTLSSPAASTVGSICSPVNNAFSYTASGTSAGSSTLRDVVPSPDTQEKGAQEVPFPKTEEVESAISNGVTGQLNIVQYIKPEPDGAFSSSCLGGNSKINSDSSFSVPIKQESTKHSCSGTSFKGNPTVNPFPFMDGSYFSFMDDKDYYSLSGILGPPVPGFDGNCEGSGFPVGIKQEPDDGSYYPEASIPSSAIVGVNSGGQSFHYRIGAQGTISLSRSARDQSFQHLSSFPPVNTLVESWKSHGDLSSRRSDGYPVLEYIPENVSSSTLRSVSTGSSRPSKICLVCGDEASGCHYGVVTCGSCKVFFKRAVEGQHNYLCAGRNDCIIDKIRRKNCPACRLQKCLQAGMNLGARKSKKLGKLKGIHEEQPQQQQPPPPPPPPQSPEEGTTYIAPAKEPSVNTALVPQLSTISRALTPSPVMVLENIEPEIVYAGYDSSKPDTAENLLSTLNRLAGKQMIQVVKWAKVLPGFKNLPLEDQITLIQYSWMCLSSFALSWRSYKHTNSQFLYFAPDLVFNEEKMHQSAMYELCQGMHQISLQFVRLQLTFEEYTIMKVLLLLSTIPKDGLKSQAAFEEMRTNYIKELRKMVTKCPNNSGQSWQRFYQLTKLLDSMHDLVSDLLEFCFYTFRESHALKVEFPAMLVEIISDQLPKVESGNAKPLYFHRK
Protocol: as §1, §2

CC/C(=C1\c2ccc(Cl)cc2OCc2ncccc21)c1cccc(NS(C)(=O)=O)c1 [Compound (I), (E)-N-{3-[1-(8-Chloro-11H-10-oxa-1-aza-dibenzo[a,d]cyclohepten-5-ylidene)-propyl]-phenyl}-methanesulfonamide]
genotoxic potential [1]: non-genotoxic
pKi [2]: 9.46
pKi ([3]; HEK293 cell lysate expressing human MR, [3H]-aldosterone, mean of 5 determinations): 6.93
greater affinity for GR relative to MR ([3]; binding selectivity GR vs MR): ≥ 30 fold

Source: US8101760B2, “Glucocorticoid receptor modulator and methods of use” (Eli Lilly and Company, priority 2007, dated 2012)
